Experimental data taken from patent US7175872B2, “Pyridinium-Betain compounds for use as taste modulators” (Nestec S.A., priority 2002, dated 2007).
Structures can show the parent of a compound that is named as a salt.

How the values were obtained:
[1] = test system: salty taste of NaCl; assay: Salt-intensity ranking of NaCl/Pyridinium-Betaine mixtures by sensory panel; type: in vivo; conditions: 20 mmol/L each, pH 7.0; scale 0 (not salty) to 5 (very salty), reference NaCl-solution ranked as 1
Excerpt: The salt-intensities of various NaCl/Pyridinium-Betaine mixtures (20 mmol/L each) were compared to a 20 mmol/L NaCl standard solution. The sensory panel was asked to rank the salt-intensities of these solutions on a scale from 0 (not salty) to 5 (very salty), while the reference NaCl-solution was ranked as 1. As listed in Table 6, the most intense salty taste was found in the solution containing NaCl and Alapyridaine, as well as in the triple mixture with L-arginine. A slight impact was found for Argpyridaine and L-arginine.

[2] = test system: sweet taste of glucose; assay: Sweet taste detection threshold of glucose/Pyridinium-Betaine mixtures (triangle test, sensory panel); type: in vivo; conditions: equimolar mixture with glucose; for Threshold decrease: vs glucose in water 50.0 mmol/L
Method: • Sensory panel training: […] Sensory analyses were performed in a sensory panel room at 22-25° C. on three different sessions. • Taste thresholds: The taste thresholds of the tastants or mixtures containing basic tastants plus Pyridinium-Betains were determined in a triangle test using Evian® mineral water as the solvent at a defined pH ([…] and H.-D. Belitz, Z. Lebensm. Unters. Forsch. 1975, 159, 65-72). The samples (3 mL) were presented in order of increasing concentrations (serial 1:1 dilutions). The threshold values evaluated in two different sessions were averaged. […] The taste intensities of aqueous (Evian®) solutions containing a basic tastant, such as glucose and MSG, for example, in constant concentrations and the compounds of the general formula (A), for example […], in various concentrations were compared with those of a solution containing the basic tastant only. To achieve this, triangle tests were performed with two glass vials containing the basic tastant in constant concentrations, and one glass vial containing a stepwise 1:1-diluted mixture of basic […]. […] The relative taste strength (taste enhancing factor) of a mixture containing the basic […] was related to the basic tastants glucose, MSG, or other tastants, respectively, as standard substances, and was determined as the ratio of the concentrations c of iso-intensely tasting solutions of the basic tastant, such as glucose (glc), and the mixture containing tastant plus Pyridinium-Betain, […])=[…] This taste enhancing effect is illustrated in examples. The sweet taste thresholds of equimolar mixtures of sweet tasting compounds and various Pyridinium-Betaines were determined by a triangle test using EVIAN® mineral water as the solvent. The sensorial evaluations were performed at different pH values. The equimolar mixture of […] and sucrose at pH 7.0 was evaluated with a 4-fold lower sweet threshold concentration than pure sucrose (Table 1). […] is able to reduce the sweet threshold of glucose 16-fold at pH 7.0 and pH 9.0, whereas at pH 5.0 a gain the sweet taste perception […] (Table 2). […] Using the dipeptide derivative (S)-[…] as a taste-enhancer leads to a 16-fold threshold reduction compared to glucose.

SMILES: CC(C(=O)[O-])[n+]1cc(O)ccc1CO (stereo not shown) [Alapyridaine, N-(1-carboxyethyl)-3-hydroxy-6-hydroxymethyl-pyridinium inner salt]
- Salt-intensity [1]: 0.0
- Sweet detection threshold ([2]; pH 5.0): 6.0 mmol/kg water
- Taste quality ([2]; pH 5.0): sweet/
- Threshold decrease ([2]; pH 5.0): 8.0
- Sweet detection threshold ([2]; pH 7.0): 3.0 mmol/kg water
- Taste quality ([2]; pH 7.0): sweet
- Threshold decrease ([2]; pH 7.0): 16
- Sweet detection threshold ([2]; pH 9.0): 3.0 mmol/kg water
- Taste quality ([2]; pH 9.0): sweet
- Threshold decrease ([2]; pH 9.0): 16
